The text below walks through data of patent US10111848B2 (National Institute of Health and Medical Research, priority 2012, dated 2018).

The test has as its system Subjects exhibiting GLUT1 deficiency. Nature of the test: Treatment of subjects exhibiting GLUT1 deficiency with triheptanoin (Example 1). Format: in vivo. The conditions noted are these: triheptanoin with each meal, about 30-35% of caloric intake, with or without other anti-epileptic drugs. An excerpt: The subjects' seizure frequency is reduced and their neurologic and movement disorder is improved due to the restoration of brain energy metabolism and net biosynthesis.

On to `CCCCCCC(=O)OCC(COC(=O)CCCCCC)OC(=O)CCCCCC` [triheptanoin, glyceryl triheptanoate], for which the “neurologic and movement disorder” value is on record as “improved”; the seizure frequency result is on record as “reduced”.
